Test systems include EKVX; HCT-15; HOP-62; HOP-92; IGROV-1; Malme-3M; NCI-H23; NCI-H522; OVCAR-3; RPMI-8226; SF-295; SF-539; SK-MEL-28; SK-MEL-5; SNB-75; SW-620; UO-31.
Common to all, as to assay: inhibition of tumour cell growth, NCI panel, 48 h

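Briefly, cells in 96-well plates were exposed to five compound concentrations for 48 h, and endpoints were estimated by linear interpolation. GI50 = concentration required for 50% inhibition of growth.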 The source made the active and inactive calls. Cut-off read from the data, not from the text of the source: active = GI50 up to about 1.1 µM and inactive = higher. Where a SMILES comes first, the peptide text is derived from it. [ ]: non-standard residue; d: D form. The star is where a group is joined. ξ: configuration not given here. NMeF = CN[CH](Cc1ccccc1)C(=O)O; ξNMe2Val = CC(C)C(C(=O)*)N(C)C; NMeV = CN[CH](C(=O)O)C(C)C; OtBu = CC(C)(C)O*

Consider nine molecules from ChEMBL document CHEMBL1201862, “PubChem BioAssay data set” (2004).

As for `CCOC(=O)C1(C(=O)OCC)CC=C(C)CC12C(=O)Nc1ccccc12` (stereo not given), the GI50 with EKVX was > 100 µM (inactive); with HCT-15, greater than 100 µM; in the test on HOP-62, > 100 µM (inactive); in the test on HOP-92 it was > 100 µM (inactive); in the test on IGROV-1, > 100 µM (inactive); in the test with Malme-3M it was > 100 µM (inactive). In addition, the GI50 in the test on NCI-H23, with NCI-H522, with OVCAR-3, with RPMI-8226, in the test on SF-295 and in the test on SF-539 was > 100 µM (inactive) in each case. Moreover, the GI50 with SK-MEL-28, in the test with SK-MEL-5, with SNB-75 and with SW-620 was > 100 µM (inactive) throughout.

Take `COc1cc2cnc3c4ccccc4ccc3c2cc1OC`: the GI50 with EKVX is 6.73 µM (inactive); in the test on HOP-62 it was > 100 µM (inactive); in the test with IGROV-1, > 100 µM (inactive); in the test with Malme-3M, > 100 µM (inactive); in the test with NCI-H23 it was > 100 µM (inactive); with NCI-H522, > 100 µM (inactive). Moreover, the GI50 in the test with OVCAR-3, in the test with RPMI-8226, in the test with SF-295, in the test on SK-MEL-28, in the test with SK-MEL-5 and in the test on SNB-75 was > 100 µM (inactive) in each case. Further, the GI50 in the test with SW-620 and in the test with UO-31 was > 100 µM (inactive) each time.

Take `CC(C)N1CCC2(CC1)NNc1ncccc1-n1cccc12`: the GI50 in the test on EKVX is > 100 µM (inactive); with HCT-15 it was greater than 10 µM; in the test with HOP-62, > 100 µM (inactive); with Malme-3M, > 100 µM (inactive); with NCI-H23, > 100 µM (inactive); in the test with NCI-H522, > 100 µM (inactive). The GI50 in the test with OVCAR-3, in the test with RPMI-8226, with SF-295, in the test on SF-539, with SK-MEL-28 and in the test with SK-MEL-5 was > 100 µM (inactive) throughout. The GI50 in the test with SNB-75, with SW-620 and in the test on UO-31 was > 100 µM (inactive) each time.

As to `COC(=O)C1Cc2c(n(Cc3ccccc3)c3ccccc23)C(CCC(=O)O)N1C(C)C` (stereo not given), the GI50 is > 100 µM (inactive) with EKVX; greater than 100 µM in the test on HCT-15; > 100 µM (inactive) in the test on HOP-92; > 100 µM (inactive) in the test with IGROV-1; > 100 µM (inactive) in the test on Malme-3M; > 100 µM (inactive) in the test on NCI-H23. Besides, the GI50 in the test with NCI-H522, in the test on OVCAR-3, with SF-295, with SF-539, in the test with SK-MEL-28 and in the test on SK-MEL-5 was > 100 µM (inactive) each time. Besides, the GI50 in the test with SNB-75, in the test with SW-620 and with UO-31 was > 100 µM (inactive) each time.

In the case of `Cc1ccccc1-c1cc(=O)c2cc(C)c(C)c(C(=O)O)c2o1`, the GI50 in the test with EKVX is > 100 µM (inactive); in the test on HCT-15, greater than 100 µM; with HOP-62 it was > 100 µM (inactive); in the test on HOP-92, > 100 µM (inactive); in the test with IGROV-1 it was > 100 µM (inactive); with Malme-3M, > 100 µM (inactive). Besides, the GI50 in the test on NCI-H23, with NCI-H522, in the test with OVCAR-3, in the test on RPMI-8226, with SF-295 and with SF-539 was > 100 µM (inactive) throughout. Further, the GI50 in the test with SK-MEL-28, in the test with SK-MEL-5, with SNB-75, in the test with SW-620 and in the test on UO-31 was > 100 µM (inactive) throughout.

`O=C(Nc1c(O)[nH]c(=S)[nH]c1=O)c1ccc2ccccc2n1`: the GI50 in the test with HCT-15 was greater than 100 µM; in the test with HOP-62 it was > 100 µM (inactive); in the test on HOP-92 it was > 100 µM (inactive); in the test on IGROV-1, > 100 µM (inactive); in the test with Malme-3M, > 100 µM (inactive); in the test with NCI-H23, > 100 µM (inactive). The GI50 in the test with NCI-H522, with OVCAR-3, in the test with RPMI-8226, in the test with SF-295, with SF-539 and in the test on SK-MEL-28 was > 100 µM (inactive) in each case. The GI50 in the test with SK-MEL-5, with SNB-75, in the test with SW-620 and in the test with UO-31 was > 100 µM (inactive) in each case.

As to `CCCCCCNc1n[nH]c(=O)c2c1nnn2Cc1ccccc1`, the GI50 is > 100 µM (inactive) in the test on EKVX; greater than 100 µM with HCT-15; > 100 µM (inactive) in the test on HOP-62; 86.9 µM (inactive) in the test on HOP-92; > 100 µM (inactive) in the test with Malme-3M; > 100 µM (inactive) with NCI-H23. Further, the GI50 in the test with OVCAR-3, in the test with RPMI-8226, with SF-295, in the test with SK-MEL-28, in the test with SK-MEL-5 and with UO-31 was > 100 µM (inactive) each time.

As for `O=c1cc(-c2ccccc2)oc2cc(OCCCCCCCCCCOc3ccc4c(=O)cc(-c5ccccc5)oc4c3)ccc12`, the GI50 in the test with EKVX was > 100 µM (inactive); with HCT-15, greater than 100 µM; in the test with HOP-62, > 100 µM (inactive); with HOP-92, > 100 µM (inactive); in the test with IGROV-1 it was > 100 µM (inactive); with Malme-3M, > 100 µM (inactive). Moreover, the GI50 in the test with NCI-H23, in the test on NCI-H522, in the test with OVCAR-3, with RPMI-8226, with SF-295 and in the test with SF-539 was > 100 µM (inactive) each time. The GI50 in the test on SK-MEL-28 is > 100 µM (inactive); with SK-MEL-5, > 100 µM (inactive); with SNB-75, 56.1 µM (inactive); in the test with SW-620 it was > 100 µM (inactive).

`CC(C)C(C(=O)N(C)C(Cc1ccccc1)C(=O)N(C)C(C(=O)N(C)C(C(=O)N1CCCC1C(=O)OC(C)(C)C)C(C)C)C(C)C)N(C)C` (stereo not given) (ξNMe2Val-[NMeF][NMeV][NMeV]P-OtBu; configuration not given here): the GI50 in the test on EKVX was 64 µM (inactive); in the test on HCT-15 it was 51.6 µM; in the test on HOP-62 it was 64.4 µM (inactive); in the test with IGROV-1 it was 90.6 µM (inactive); with Malme-3M, > 10 µM (inactive); with NCI-H23, 94.6 µM (inactive). For the same molecule, the GI50 was 17.4 µM (inactive) with NCI-H522; 62.5 µM (inactive) with OVCAR-3; 36.8 µM (inactive) in the test with RPMI-8226; 60.8 µM (inactive) with SF-295; 26.1 µM (inactive) in the test on SF-539; 18 µM (inactive) in the test on SK-MEL-5. Further, the GI50 with SW-620 was 43 µM (inactive); in the test on UO-31, 86.7 µM (inactive).
